# In patent US10376476B2, “Panicein compounds, compositions and uses thereof” (CENTRE NATIONAL DE LA RECHERCHE SCIENTIFIQUE, priority 2014, dated 2019):
# Target: T1, wild-type Patched (hPtc) expressed in yeasts (Homo sapiens, UniProt Q13635)
# T1 construct: MAP; expressed in transfected cells; host or cells: Saccharomyces cerevisiae K699
# T1 sequence (Q13635 1-1447): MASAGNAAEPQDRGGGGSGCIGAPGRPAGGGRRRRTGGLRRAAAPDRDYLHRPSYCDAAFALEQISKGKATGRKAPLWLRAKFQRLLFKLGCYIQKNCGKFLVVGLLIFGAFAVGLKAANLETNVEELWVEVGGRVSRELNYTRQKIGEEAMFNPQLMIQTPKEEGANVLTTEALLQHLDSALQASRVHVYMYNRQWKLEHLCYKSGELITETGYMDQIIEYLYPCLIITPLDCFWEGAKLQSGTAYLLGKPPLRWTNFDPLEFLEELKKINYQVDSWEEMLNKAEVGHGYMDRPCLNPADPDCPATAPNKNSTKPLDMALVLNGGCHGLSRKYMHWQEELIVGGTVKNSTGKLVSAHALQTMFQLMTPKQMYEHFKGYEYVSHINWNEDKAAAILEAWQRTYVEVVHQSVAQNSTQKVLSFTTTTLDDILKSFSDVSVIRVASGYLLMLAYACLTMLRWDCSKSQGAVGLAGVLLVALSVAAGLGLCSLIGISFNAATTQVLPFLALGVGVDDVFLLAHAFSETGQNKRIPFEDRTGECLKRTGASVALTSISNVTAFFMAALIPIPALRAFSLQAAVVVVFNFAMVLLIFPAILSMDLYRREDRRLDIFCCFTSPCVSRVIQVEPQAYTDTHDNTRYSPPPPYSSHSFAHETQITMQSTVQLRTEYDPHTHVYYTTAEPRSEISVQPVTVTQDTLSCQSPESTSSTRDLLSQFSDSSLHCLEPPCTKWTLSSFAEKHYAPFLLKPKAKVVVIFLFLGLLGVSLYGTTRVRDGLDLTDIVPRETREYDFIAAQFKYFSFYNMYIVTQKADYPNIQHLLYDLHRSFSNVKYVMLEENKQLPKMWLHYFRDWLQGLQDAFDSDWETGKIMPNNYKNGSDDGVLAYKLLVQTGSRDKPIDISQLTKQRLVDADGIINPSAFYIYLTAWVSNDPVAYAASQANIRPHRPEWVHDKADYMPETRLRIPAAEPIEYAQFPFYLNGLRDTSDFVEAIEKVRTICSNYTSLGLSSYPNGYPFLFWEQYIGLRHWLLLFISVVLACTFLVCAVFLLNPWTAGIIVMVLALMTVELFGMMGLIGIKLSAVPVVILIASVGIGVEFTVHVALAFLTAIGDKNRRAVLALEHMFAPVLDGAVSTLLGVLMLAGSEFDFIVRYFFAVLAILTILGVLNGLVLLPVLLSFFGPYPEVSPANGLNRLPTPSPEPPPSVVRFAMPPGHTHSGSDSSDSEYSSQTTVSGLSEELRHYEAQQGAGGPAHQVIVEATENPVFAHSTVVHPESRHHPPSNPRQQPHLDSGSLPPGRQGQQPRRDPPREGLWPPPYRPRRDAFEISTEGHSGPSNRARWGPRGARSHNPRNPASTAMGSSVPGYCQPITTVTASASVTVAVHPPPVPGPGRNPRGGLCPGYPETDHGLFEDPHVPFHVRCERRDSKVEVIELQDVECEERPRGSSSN
# Experiment: Doxorubicin efflux from yeasts (intracellular dxr fluorescence)
# Assay type: cell-based
# Settings: for Efflux (%) of dxr: WT-hPtc-yeasts, 10 μM paniceins, 10 min, 5 mM 2-deoxy-D-glucose; for dxr fluorescence in hPtc-expressing yeasts after efflux: 10 μM paniceins during efflux, contrary to control yeasts
# Description: A. Compound P5 inhibits doxorubicin efflux from melanoma cells MeWo and A375. Cells were grown on cover-slips, incubated for 2 hour at 37° C. with 10 μM doxorubicin and quickly rinsed with phosphate buffer (pH 7.4). One cover-slip of each cell line was immediately fixed for doxorubicin charge control. The other cover-slips were incubated with buffer supplemented with DMSO or 10 μM of compound P5 30 min under gentle shaking and immediately fixed. Dxr intracellular fluorescence was visualized by epifluorescence and analyzed using Image J software on more than 30 cells of 3 different fields for each condition. The results were analyzed using the Student t test in which significance is attained at P<0.05 (**: P<0.005, ***: P<0.0005). B. Paniceins inhibit doxorubicin efflux from Patched-expressing yeasts. Yeasts expressing wild-type Patched (hPtc, in black), mutant Patched G509VD513Y (hPtcVXXXY, in grey), and control yeasts (in white) were incubated in buffer supplemented with 5 mM of 2-deoxy-D-glucose and 10 μM dxr for 2 hours at 4° C. After centrifugation and supernatant removing, one sample was immediately fixed for charge control and the other samples were resuspended in buffer containing 5 mM of 2-deoxy-D-glucose supplemented with DMSO or 10 μM of paniceins 10 minutes at 25° C. with gentle shaking. After centrifugation and supernatant removing, samples were fixed and deposited on coverslips for epifluorescence microscopy observation. Dxr intracellular fluorescence quantification was carried out using Image J software on more than 30 yeasts on 3 different fields for each condition. The results were analyzed using the Student t test in which significance is attained at P<0.05 (*).
# On yeasts: Yeasts expressing Patched (hPtc), mutant Patched (hPtcG509VD513Y), or control yeasts were washed with cold water, resuspended at an OD600 of 10 in Hepes-NaOH buffer (pH 7.0) supplemented with 5 mM of 2-deoxy-D-glucose, and incubated with 10 μM doxorubicin for 2 hours at 4° C. in the cold room on a rotating wheel protected from light. Yeasts were centrifuged and the supernatant was removed. One sample was immediately fixed with 4% paraformaldehyde for doxorubicin loading control. The other samples were resuspended in Hepes-NaOH buffer (pH 7.0) containing 5 mM of 2-deoxy-D-glucose supplemented with DMSO or 10 μM of paniceins, and incubated 10 minutes at 20° C. with gentle shaking in a Benchmark Multi-therm shaker protected from light. Samples were centrifuged for 1 minute at 18,000 g, supernatants were removed and yeasts were fixed with 4% paraformaldehyde. 10 μL of each sample were deposited on a coverslip and observed by epifluorescence microscopy using an objective 63x and filters for Alexa 594. Quantification of doxorubicin intracellular fluorescence was carried out using Image J software on more than 30 yeasts on 3 different fields for each condition. The results were analyzed using the Student t test in which significance is attained at P <0.05.
# In order to see if Paniceins inhibit dxr efflux through Patched inhibition, inventors compared dxr efflux on yeasts over-expressing human Patched and control yeasts. After loading with dxr, yeasts were centrifuged and fixed for dxr loading control (LC), or resuspended in buffer supplemented with DMSO or paniceins for efflux measurements. After 10 min a 20° C., yeasts were collected, fixed and deposited on cover-slips. 2-deoxy-D-glucose was added in buffer during loading and efflux in order to inhibit ATP-binding cassette (ABC) transporters. Dxr fluorescence intensity of at least 30 yeasts was measured for each experiment. FIGS. 6A and 12A show the mean fluorescence intensity of 3 independent experiments. […] This was confirmed using yeasts over-expressing Patched mutant VXXXY. […] Yeasts over-expressing hPtcVXXXY are less resistance to growth inhibition by dxr than yeasts over-expressing wild-type hPtc (Bidet et al., 2012).
Structure (SMILES),Efflux (%) of dxr [%],dxr fluorescence in hPtc-expressing yeasts after efflux
"C/C(=C\Cc1cc(O)ccc1O)CCc1c(C)c(O)c(O)c(C=O)c1C [P2, Panicein C]",51,–
"C/C(=C\Cc1cc(O)ccc1O)CCc1c(C)cc(O)c(C=O)c1C [P3, Panicein B3]",46,–
"Cc1cc(O)c(C=O)c(C)c1CCC1(C)C=Cc2cc(O)ccc2O1 (stereo not drawn) [P4, Panicein B2]",46,significantly higher amounts of dxr fluorescence
"COc1cc(C)c(CC/C(C)=C/Cc2cc(O)ccc2O)c(C)c1C [P5, Panicein A hydroquinone]",40,significantly higher amounts of dxr fluorescence
